Experiment [1] in a line: 10-week feeding of G1D mice, blood ketone and glucose. The note with it: fed for 10 weeks, 10% KE or 20% KS in standard diet, or ketogenic diet. Type of experiment: in vivo. The protocol: GLUT1 deficiency syndrome (G1D) is characterized by impaired glucose transport in the brain and diagnosed with CSF glucose value of <2.2 mmol/L. There is no cure for G1D, but the ketogenic diet (KD) is often effective for the drug-resistant seizures and impairment of motor function associated with the disease. The effect of ketogenic compounds on blood glucose levels was assessed in glucose transporter type 1 (G1D)-deficient mice. A group of 48 G1D mice, aged 2-5 months old, were fed for 10 weeks with either a standard rodent diet (SD), a ketogenic diet (KD), a standard diet supplemented with 10% ketone ester (SD+KE) or a standard diet supplemented with 20% ketone mineral salt (SD+KS).

A short description of experiment [2]: Chronic feeding (83 days) of ketone supplements, blood βHB and glucose. Type of experiment: in vivo, Sprague-Dawley rats. As to conditions: SPD rats, after 83 days of chronic feeding (~25 g/kg b.w./day), compared to control. The text has this: A total of 48 male SPD rats were fed for 83 days with either standard rodent chow (2018 Teklad Global 18% Protein Rodent Diet (#2018), Harlan) standard diet (SD)/control; n=9) or SD+ketone supplementation. Four treatment animal groups included low-dose KE (˜10 g/kg b.w./day, Low-dose ketone ester (LKE); n=10), high-dose KE (˜25 g/kg b.w./day, high dose ketone ester (HKE); n=10), KS (˜25 g/kg b.w./day, KS; n=9) and KSMCT (˜25 g/kg b.w./day, KSMCT; n=10).
(§1) In the chronic feeding study, blood βHB and glucose levels were measured 24 h before the 1st day of ketone treatments (baseline levels) and at 13th week. In the 7 day oral gavage studies, blood βHB and glucose levels were measured 24 h before the 1st day of ketone treatments (baseline levels; SPD and WAG/Rij rats), 24 h after the first gavage and 60 min after gavage on the 7th day (SPD and WAG/Rij rats). Whole blood samples (10 μL) were taken from the saphenous vein for analysis of blood glucose (mg/dl) and βHB (mmol/1) levels with the commercially available glucose and ketone (βHB) monitoring system Precision Xtra™ (Abbott Laboratories, Abbott Park, Ill., USA).

A short description of experiment [3]: Multiple treatment (7 days) and rotarod exercise, blood βHB and glucose. The experiment is classed as in vivo, Sprague-Dawley rats. The note with it: exercised SPD rats. From the text:
Four month old Sprague-Dawley rats were first acclimated to oral gavage with administration of tap water once daily for a period of 5 days. The rats were then divided into 5 groups, and fed either a standard diet (SD), a ketogenic diet (KD), or a standard diet supplemented with a once daily oral gavage of a ketogenic compound as outlined in Table 1. The ketogenic compound was selected from 1,3-butanediol-acetoacetate diester (SD+KE), β-hydroxybutyrate mineral salt (SD+KS), or β-hydroxybutyrate mineral salt and a medium chain triglyceride (SD+KSMCT). The above ketogenic compounds were provided at a dose of 5 g/kg of body weight.
Each group of animals was maintained on the respective dietary conditions for 7 days. Whole blood samples (10 μL) were collected from the saphenous vein of rats. The levels of blood glucose (mg/dL) and β-hydroxybutyrate (mmol/L) were measured with the commercially available glucose monitoring system PRECISION XTRA® (Abbott Laboratories, Abbott Park, Ill., USA). It is noted that the PRECISION XTRA® only measures β-hydroxybutyrate levels, therefore total blood ketone levels may be higher than measured.
Rats were exercised on a Rota Rod Rotamex 5 (Columbus Instruments). Animals were exercised on the rotarod for 5 consecutive days before treatment began in order to acclimate to the equipment and the task. The rats were placed on rods of the accelerating rotarod and the time the animals remained on the rotarod was measured. The rotarod was set to accelerate to 40 rpm in 180 seconds. Each training and testing consisted of 3 trials, with a 2 minute rest period between each trial. Animals were placed on the rotarod and timed until they fell from the rotating rod. The animals were evaluated on the rotarod exercise test after the 5 days training period but prior to the beginning of dietary treatment (baseline), 24 hours after treatment, and after 7 days of dietary treatment.
The animals were evaluated for blood levels of glucose and ketone bodies β-hydroxybutyrate), prior to the beginning of dietary treatment, 24 hours after treatment, and after 7 days of dietary treatment.

Experiment [4] can be described thus: Sub-chronic oral gavage (7 days), blood βHB and glucose, without exercise. The experiment is classed as in vivo. The note with it: WAG/Rij rats; for blood βHB: about 2.5 g/kg b.w./day, after 7 days of gavage, compared to baseline, 24 h and control.
Excerpt: (§2) In order to familiarize the animals to the intragastric gavage method, water was gavaged for 5 days before ketone supplementation. Following the adaptation period to the intragastric gavage method, 39 male SPD rats were fed with standard diet, and gavaged daily with 5 g/kg b.w./day water (SD/control; n=11) or ketone supplements KE (n=9), KS (n=9), KSMCT (n=10) sub-chronically for 7 days. In addition, following the adaptation period to the intragastric gavage method, WAG/Rij male rats (n=32) were fed with SD and gavaged sub-chronically with about 2.5 g/kg b.w./day water (SD/control; n=8), KE (n=8), KS (n=8) or KSMCT (n=8) for 7 days.
as §1

Experiment in experiment [5]: as above
The experiment is classed as in vivo, Sprague-Dawley rats. As to conditions: SPD rats, 5 g/kg b.w./day gavage.
Excerpt: as §2, §1

Where [6] appears, read: 5 g/kg once daily gavage (or ketogenic diet), 24 hours after treatment.
The mark [7] stands for this setting: 5 g/kg once daily gavage (or ketogenic diet), after 24 hours, compared to baseline.
[8] abbreviates: 5 g/kg once daily gavage (or ketogenic diet), after 7 days.
[9] abbreviates: 5 g/kg once daily gavage, after 7 days.

As for `CC(=O)CC(=O)OCCC(C)OC(=O)CC(C)=O` (centres unmarked) [KE, 1,3-butanediol-acetoacetate diester], in experiment [1], the blood glucose level entry is “quickly dropped and remained the lowest”. The blood ketone level result in experiment [1] was “slow and slight elevation”. Also, the “blood βHB levels” value is recorded as “significantly elevated” in experiment [2] and “elevated” in experiment [5] (24 h after a single gavage, compared to control). The “blood βHB after exercise” value in experiment [3] (setting [6]) is “elevated levels”; in experiment [3] (setting [8]), “trend towards baseline levels”. The figures for the “blood glucose levels after exercise” value in experiment [3] (setting [7]) and in experiment [3] (setting [9]) were “reduce blood glucose levels” and “trended towards baseline”, respectively. Besides, in experiment [4] (about 2.5 g/kg b.w./day gavage, after 24 h, compared to baseline and control group), the glucose levels entry was “lower”. Also, the “blood βHB” value in experiment [4] is given as “elevated”. Moreover, in experiment [5] (at 24 h, compared to control), the blood glucose levels result was “lower”.

For the compound “Na^+/K^+-β-hydroxybutyrate mineral salt [KS]”, the blood glucose level entry in experiment [1] is listed as “early decrease”. Moreover, the blood ketone level result in experiment [1] was “significant and rapid elevation”. In addition, in experiment [2], the “blood βHB levels” value is recorded as “significantly elevated”. Further, the “blood βHB after exercise” value is “no change” in experiment [3] (setting [6]) and “significant increase” in experiment [3] (setting [8]). For the same compound, the “blood glucose levels after exercise” value in experiment [3] (setting [7]) is recorded as “increase”; in experiment [3] (setting [9]), “decline towards baseline”. The “blood βHB” value in experiment [4] was “elevated”; in experiment [5] (7 days, compared to control group), “elevated”.

Values taken from US20190091189A1, “ADMINISTRATION OF EXOGENOUS KETONE TO LOWER BLOOD GLUCOSE” (priority 2016, published 2019).
